Source: PubChem BioAssay (NCI)
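Where inhibition never reached the appropriate level, the endpoint shown equals the highest concentration tested. Otherwise, values were interpolated linearly from a five-concentration, 48-hour dose response in 96-well plates. TGI is the concentration that stops growth completely.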

Assays:
Test in all cases: inhibition of tumour cell growth, NCI panel, 48 h
CCRF-CEM leukemia = test system: CCRF-CEM leukemia
HCT-15 colon = test system: HCT-15 colon
COLO 205 colon = test system: COLO 205 colon
NCI-H23 lung = test system: NCI-H23 lung
UO-31 renal = test system: UO-31 renal
MALME-3M melanoma = test system: MALME-3M melanoma
NCI-H460 lung = test system: NCI-H460 lung
SF-295 CNS = test system: SF-295 CNS
M14 melanoma = test system: M14 melanoma
SK-MEL-2 melanoma = test system: SK-MEL-2 melanoma
MDA-MB-231 breast = test system: MDA-MB-231 breast
SW-620 colon = test system: SW-620 colon
SR leukemia = test system: SR leukemia
NCI-H522 lung = test system: NCI-H522 lung
EKVX NSCLC = test system: EKVX NSCLC
LOX IMVI melanoma = test system: LOX IMVI melanoma
U251 CNS = test system: U251 CNS
SK-OV-3 ovarian = test system: SK-OV-3 ovarian
SN12C renal = test system: SN12C renal
TK-10 renal = test system: TK-10 renal
OVCAR-8 ovarian = test system: OVCAR-8 ovarian
PC-3 prostate = test system: PC-3 prostate
HOP-62 NSCLC = test system: HOP-62 NSCLC
SNB-19 CNS = test system: SNB-19 CNS
RPMI-8226 leukemia = test system: RPMI-8226 leukemia
SNB-75 CNS = test system: SNB-75 CNS
A498 renal = test system: A498 renal
OVCAR-3 ovarian = test system: OVCAR-3 ovarian
HOP-92 NSCLC = test system: HOP-92 NSCLC
IGROV1 ovarian = test system: IGROV1 ovarian
DU-145 prostate = test system: DU-145 prostate
SF-268 CNS = test system: SF-268 CNS
SK-MEL-28 melanoma = test system: SK-MEL-28 melanoma
MDA-MB-435 = test system: MDA-MB-435
OVCAR-5 ovarian = test system: OVCAR-5 ovarian
MCF7 breast = test system: MCF7 breast
CAKI-1 renal = test system: CAKI-1 renal
ACHN renal = test system: ACHN renal
HCT-116 colon = test system: HCT-116 colon
UACC-257 melanoma = test system: UACC-257 melanoma
NCI/ADR-RES ovarian = test system: NCI/ADR-RES ovarian
786-0 renal = test system: 786-0 renal
OVCAR-4 ovarian = test system: OVCAR-4 ovarian
SF-539 CNS = test system: SF-539 CNS
HL-60(TB) leukemia = test system: HL-60(TB) leukemia
UACC-62 melanoma = test system: UACC-62 melanoma
T-47D breast = test system: T-47D breast
HCC-2998 colon = test system: HCC-2998 colon
MDA-N = test system: MDA-N
HT29 colon = test system: HT29 colon
MOLT-4 leukemia = test system: MOLT-4 leukemia
K-562 leukemia = test system: K-562 leukemia
A549 NSCLC = test system: A549 NSCLC
NCI-H226 lung = test system: NCI-H226 lung
HS 578T breast = test system: HS 578T breast
SK-MEL-5 melanoma = test system: SK-MEL-5 melanoma
RXF 393 renal = test system: RXF 393 renal
KM12 colon = test system: KM12 colon
BT-549 breast = test system: BT-549 breast

For COC(=O)/C=C(/C=C1/C(C#N)=C(N)N(c2ccc(Cl)cc2)C1(C)/C(=C/C(=O)OC)C(=O)OC)C(=O)OC (centres undefined), which TGI (CCRF-CEM leukemia) is on record?
Its TGI is greater than 100 µM.

What about the TGI (HCT-15 colon) of the same molecule?
Its TGI is greater than 100 µM.

What about the TGI (COLO 205 colon) of the same molecule?
Its TGI is greater than 100 µM.

And the TGI (NCI-H23 lung)?
Its TGI is greater than 100 µM.

What about the TGI (UO-31 renal) of the same molecule?
The TGI was greater than 100 µM.

And the TGI (MALME-3M melanoma)?
Its TGI is greater than 100 µM.

And the TGI (NCI-H460 lung)?
The TGI was greater than 100 µM.

And the TGI (SF-295 CNS)?
The TGI was greater than 100 µM.

What about the TGI (M14 melanoma) of the same molecule?
Its TGI is greater than 100 µM.

What about the TGI (SK-MEL-2 melanoma) of the same molecule?
Its TGI is greater than 100 µM.

And the TGI (MDA-MB-231 breast)?
Its TGI is greater than 100 µM.

And the TGI (SW-620 colon)?
Its TGI is greater than 100 µM.

What about the TGI (SR leukemia) of the same molecule?
Its TGI is greater than 100 µM.

And the TGI (NCI-H522 lung)?
Its TGI is greater than 100 µM.

And the TGI (EKVX NSCLC)?
Its TGI is greater than 100 µM.

And the TGI (LOX IMVI melanoma)?
Its TGI is 84.6 µM.

And the TGI (U251 CNS)?
The TGI was greater than 100 µM.

What about the TGI (SK-OV-3 ovarian) of the same molecule?
Its TGI is greater than 100 µM.

And the TGI (SN12C renal)?
The TGI was greater than 100 µM.

And the TGI (TK-10 renal)?
The TGI was greater than 100 µM.

And the TGI (OVCAR-8 ovarian)?
The TGI was greater than 100 µM.

What about the TGI (PC-3 prostate) of the same molecule?
The TGI was greater than 100 µM.

What about the TGI (HOP-62 NSCLC) of the same molecule?
Its TGI is greater than 100 µM.

What about the TGI (SNB-19 CNS) of the same molecule?
The TGI was greater than 100 µM.

And the TGI (RPMI-8226 leukemia)?
Its TGI is greater than 100 µM.

What about the TGI (SNB-75 CNS) of the same molecule?
Its TGI is 76 µM.

And the TGI (A498 renal)?
The TGI was greater than 100 µM.

And the TGI (OVCAR-3 ovarian)?
Its TGI is greater than 100 µM.

And the TGI (HOP-92 NSCLC)?
The TGI was 88.6 µM.

What about the TGI (IGROV1 ovarian) of the same molecule?
Its TGI is greater than 100 µM.

What about the TGI (DU-145 prostate) of the same molecule?
Its TGI is greater than 100 µM.

What about the TGI (SF-268 CNS) of the same molecule?
Its TGI is greater than 100 µM.

And the TGI (SK-MEL-28 melanoma)?
Its TGI is greater than 100 µM.

What about the TGI (MDA-MB-435) of the same molecule?
Its TGI is greater than 100 µM.

What about the TGI (OVCAR-5 ovarian) of the same molecule?
Its TGI is greater than 100 µM.

What about the TGI (MCF7 breast) of the same molecule?
Its TGI is greater than 100 µM.

And the TGI (CAKI-1 renal)?
The TGI was greater than 100 µM.

And the TGI (ACHN renal)?
The TGI was greater than 100 µM.

And the TGI (HCT-116 colon)?
The TGI was greater than 100 µM.

What about the TGI (UACC-257 melanoma) of the same molecule?
The TGI was greater than 100 µM.

And the TGI (NCI/ADR-RES ovarian)?
Its TGI is greater than 100 µM.

What about the TGI (786-0 renal) of the same molecule?
The TGI was greater than 100 µM.

What about the TGI (OVCAR-4 ovarian) of the same molecule?
The TGI was greater than 100 µM.

What about the TGI (SF-539 CNS) of the same molecule?
Its TGI is greater than 100 µM.

And the TGI (HL-60(TB) leukemia)?
The TGI was 41.8 µM.

And the TGI (UACC-62 melanoma)?
Its TGI is greater than 100 µM.

And the TGI (T-47D breast)?
The TGI was greater than 100 µM.

What about the TGI (HCC-2998 colon) of the same molecule?
The TGI was greater than 100 µM.

What about the TGI (MDA-N) of the same molecule?
The TGI was greater than 100 µM.

What about the TGI (HT29 colon) of the same molecule?
Its TGI is greater than 100 µM.

What about the TGI (MOLT-4 leukemia) of the same molecule?
The TGI was greater than 100 µM.

What about the TGI (K-562 leukemia) of the same molecule?
The TGI was 50.5 µM.

What does the source list for CC(=O)Oc1cc(Cl)c(C)c2c1[C@H]1CC[C@]3(C)[C@@H](OC(C)=O)CC[C@H]3[C@@H]1CC2?
TGI (CCRF-CEM leukemia): > 100 µM; TGI (HCT-15 colon): > 100 µM; TGI (NCI-H23 lung): > 100 µM; TGI (UO-31 renal): > 100 µM; TGI (A549 NSCLC): > 100 µM; TGI (MALME-3M melanoma): > 100 µM; TGI (NCI-H460 lung): > 100 µM; TGI (SF-295 CNS): > 100 µM; TGI (M14 melanoma): > 100 µM; TGI (MDA-MB-231 breast): > 100 µM; TGI (SW-620 colon): > 100 µM; TGI (NCI-H522 lung): > 100 µM; TGI (EKVX NSCLC): > 100 µM; TGI (LOX IMVI melanoma): > 100 µM; TGI (U251 CNS): > 100 µM; TGI (NCI-H226 lung): > 100 µM; TGI (SN12C renal): > 100 µM; TGI (TK-10 renal): > 100 µM; TGI (OVCAR-8 ovarian): > 100 µM; TGI (HOP-62 NSCLC): > 100 µM; TGI (SNB-19 CNS): > 100 µM; TGI (RPMI-8226 leukemia): > 100 µM; TGI (SNB-75 CNS): > 100 µM; TGI (A498 renal): > 100 µM; TGI (OVCAR-3 ovarian): > 100 µM; TGI (HOP-92 NSCLC): > 100 µM; TGI (IGROV1 ovarian): > 100 µM; TGI (DU-145 prostate): > 100 µM; TGI (SF-268 CNS): > 100 µM; TGI (SK-MEL-28 melanoma): > 100 µM; TGI (HS 578T breast): > 100 µM; TGI (MDA-MB-435): > 100 µM; TGI (OVCAR-5 ovarian): > 100 µM; TGI (MCF7 breast): > 100 µM; TGI (ACHN renal): > 100 µM; TGI (HCT-116 colon): > 100 µM; TGI (UACC-257 melanoma): > 100 µM; TGI (NCI/ADR-RES ovarian): > 100 µM; TGI (SK-MEL-5 melanoma): > 100 µM; TGI (786-0 renal): > 100 µM; TGI (SF-539 CNS): > 100 µM; TGI (RXF 393 renal): > 100 µM; TGI (HL-60(TB) leukemia): > 100 µM; TGI (UACC-62 melanoma): > 100 µM; TGI (T-47D breast): > 100 µM; TGI (HCC-2998 colon): > 100 µM; TGI (MDA-N): > 100 µM; TGI (HT29 colon): > 100 µM; TGI (MOLT-4 leukemia): > 100 µM; TGI (KM12 colon): > 100 µM; TGI (BT-549 breast): > 100 µM; TGI (K-562 leukemia): > 100 µM
